Laboratory results published in PubChem BioAssay AID1919002 (Molecular Pharmacology Branch, DTP, NCI, 2023).
pIC50: −log10 of the molar value.

Tested on: 743489-274-T-PDC complex spheroid growth
Experiment: Anticancer human tumor 743489-274-T-PDC patient-derived renal cell carcinoma cell line growth inhibition [AhR]
Conditions: for pIC50: curve of first compound; for viability, T/C: stronger effect = lower value; active means viability on the fitted dose curve at most 10% of control; inactive means the rest
Outline: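 Spheroids combined tumor cells with HUVEC endothelial cells and human MSCs as stroma. AhR antagonists were paired with standard or investigational drugs, each dosed in half-log steps down from near clinical Cmax, or from 10 microM where Cmax was unknown.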
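Further: spheroids exposed to agents for 7 days before readout.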
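Wherever viability, T/C is given: 100% = DMSO vehicle control wells.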

CC1COCCN1c1cc(C2(S(C)(=N)=O)CC2)nc(-c2ccnc3[nH]ccc23)n1 (stereo not given) + CC(CO)NC(=O)c1cc(-c2ccc(Cl)cc2)nn(-c2cnn(C)c2)c1=O
inactive: viability, T/C (second compound 0.1 µM, first compound 0.0316 µM) 97.5% | viability, T/C (second compound 0.1 µM, first compound 0.1 µM) 89.1% | viability, T/C (second compound 0.1 µM, first compound 0.316 µM) 94.7% | viability, T/C (second compound 0.1 µM, first compound 1 µM) 92% | viability, T/C (second compound 0.1 µM, first compound 3.16 µM) 98.7% | viability, T/C (second compound 0.1 µM, first compound 10 µM) 96.7% | viability, T/C (second compound 0.316 µM, first compound 0.0316 µM) 90.2% | viability, T/C (second compound 0.316 µM, first compound 0.1 µM) 99.5% | viability, T/C (second compound 0.316 µM, first compound 0.316 µM) 96.3% | viability, T/C (second compound 0.316 µM, first compound 1 µM) 86.2% | viability, T/C (second compound 0.316 µM, first compound 3.16 µM) 85.3% | viability, T/C (second compound 0.316 µM, first compound 10 µM) 91.3% | viability, T/C (second compound 1 µM, first compound 0.0316 µM) 99% | viability, T/C (second compound 1 µM, first compound 0.1 µM) 84.7% | viability, T/C (second compound 1 µM, first compound 0.316 µM) 95.3% | viability, T/C (second compound 1 µM, first compound 1 µM) 101% | viability, T/C (second compound 1 µM, first compound 3.16 µM) 87.4% | viability, T/C (second compound 1 µM, first compound 10 µM) 93% | viability, T/C (second compound 3.16 µM, first compound 0.0316 µM) 92.7% | viability, T/C (second compound 3.16 µM, first compound 0.1 µM) 86.8% | viability, T/C (second compound 3.16 µM, first compound 0.316 µM) 86.1% | viability, T/C (second compound 3.16 µM, first compound 1 µM) 90.3% | viability, T/C (second compound 3.16 µM, first compound 3.16 µM) 84.5% | viability, T/C (second compound 3.16 µM, first compound 10 µM) 103% | viability, T/C (second compound 10 µM, first compound 0.0316 µM) 109% | viability, T/C (second compound 10 µM, first compound 0.1 µM) 94.2% | viability, T/C (second compound 10 µM, first compound 0.316 µM) 89.9% | viability, T/C (second compound 10 µM, first compound 1 µM) 83.3% | viability, T/C (second compound 10 µM, first compound 3.16 µM) 93.7% | viability, T/C (second compound 10 µM, first compound 10 µM) 102%
< 5.00: pIC50 (second compound 0.1 µM) | pIC50 (second compound 0.316 µM) | pIC50 (second compound 1 µM) | pIC50 (second compound 3.16 µM) | pIC50 (second compound 10 µM)

O=C(C=Cn1cnc(-c2cc(C(F)(F)F)cc(C(F)(F)F)c2)n1)NNc1cnccn1 + CC(CO)NC(=O)c1cc(-c2ccc(Cl)cc2)nn(-c2cnn(C)c2)c1=O
inactive: viability, T/C (second compound 0.1 µM, first compound 0.00949 µM) 108% | viability, T/C (second compound 0.1 µM, first compound 0.03 µM) 102% | viability, T/C (second compound 0.1 µM, first compound 0.0949 µM) 111% | viability, T/C (second compound 0.1 µM, first compound 0.3 µM) 122% | viability, T/C (second compound 0.1 µM, first compound 0.949 µM) 114% | viability, T/C (second compound 0.1 µM, first compound 3 µM) 98.3% | viability, T/C (second compound 0.316 µM, first compound 0.00949 µM) 86.7% | viability, T/C (second compound 0.316 µM, first compound 0.03 µM) 103% | viability, T/C (second compound 0.316 µM, first compound 0.0949 µM) 117% | viability, T/C (second compound 0.316 µM, first compound 0.3 µM) 115% | viability, T/C (second compound 0.316 µM, first compound 0.949 µM) 101% | viability, T/C (second compound 0.316 µM, first compound 3 µM) 90.3% | viability, T/C (second compound 1 µM, first compound 0.00949 µM) 94% | viability, T/C (second compound 1 µM, first compound 0.03 µM) 109% | viability, T/C (second compound 1 µM, first compound 0.0949 µM) 101% | viability, T/C (second compound 1 µM, first compound 0.3 µM) 123% | viability, T/C (second compound 1 µM, first compound 0.949 µM) 116% | viability, T/C (second compound 1 µM, first compound 3 µM) 94.1% | viability, T/C (second compound 3.16 µM, first compound 0.00949 µM) 96.7% | viability, T/C (second compound 3.16 µM, first compound 0.03 µM) 101% | viability, T/C (second compound 3.16 µM, first compound 0.0949 µM) 112% | viability, T/C (second compound 3.16 µM, first compound 0.3 µM) 129% | viability, T/C (second compound 3.16 µM, first compound 0.949 µM) 105% | viability, T/C (second compound 3.16 µM, first compound 3 µM) 86.1% | viability, T/C (second compound 10 µM, first compound 0.00949 µM) 96.3% | viability, T/C (second compound 10 µM, first compound 0.03 µM) 110% | viability, T/C (second compound 10 µM, first compound 0.0949 µM) 104% | viability, T/C (second compound 10 µM, first compound 0.3 µM) 116% | viability, T/C (second compound 10 µM, first compound 0.949 µM) 94.9% | viability, T/C (second compound 10 µM, first compound 3 µM) 91.3%
< 5.52: pIC50 (second compound 0.1 µM) | pIC50 (second compound 0.316 µM) | pIC50 (second compound 1 µM) | pIC50 (second compound 3.16 µM) | pIC50 (second compound 10 µM)
